Reference: PMC8600679, “Substituted Two- to Five-Ring Polycyclic Aromatic Compounds Are Potent Agonists of Atlantic Cod (Gadus morhua) Aryl Hydrocarbon Receptors Ahr1a and Ahr2a” (Environmental Science & Technology, 2021)
Like-named read-outs stand apart in the source and are kept apart here.

Key:
Atlantic cod Ahr1a = Atlantic cod Ahr1a (Gadus morhua, UniProt A0A6H1Z2L5); test: cell-based
Atlantic cod Ahr2a = biological target: T1, Atlantic cod Ahr2a (Gadus morhua, UniProt A0A6H1Z3G8); test: cell-based
T1 sequence (A0A6H1Z3G8 1-1127): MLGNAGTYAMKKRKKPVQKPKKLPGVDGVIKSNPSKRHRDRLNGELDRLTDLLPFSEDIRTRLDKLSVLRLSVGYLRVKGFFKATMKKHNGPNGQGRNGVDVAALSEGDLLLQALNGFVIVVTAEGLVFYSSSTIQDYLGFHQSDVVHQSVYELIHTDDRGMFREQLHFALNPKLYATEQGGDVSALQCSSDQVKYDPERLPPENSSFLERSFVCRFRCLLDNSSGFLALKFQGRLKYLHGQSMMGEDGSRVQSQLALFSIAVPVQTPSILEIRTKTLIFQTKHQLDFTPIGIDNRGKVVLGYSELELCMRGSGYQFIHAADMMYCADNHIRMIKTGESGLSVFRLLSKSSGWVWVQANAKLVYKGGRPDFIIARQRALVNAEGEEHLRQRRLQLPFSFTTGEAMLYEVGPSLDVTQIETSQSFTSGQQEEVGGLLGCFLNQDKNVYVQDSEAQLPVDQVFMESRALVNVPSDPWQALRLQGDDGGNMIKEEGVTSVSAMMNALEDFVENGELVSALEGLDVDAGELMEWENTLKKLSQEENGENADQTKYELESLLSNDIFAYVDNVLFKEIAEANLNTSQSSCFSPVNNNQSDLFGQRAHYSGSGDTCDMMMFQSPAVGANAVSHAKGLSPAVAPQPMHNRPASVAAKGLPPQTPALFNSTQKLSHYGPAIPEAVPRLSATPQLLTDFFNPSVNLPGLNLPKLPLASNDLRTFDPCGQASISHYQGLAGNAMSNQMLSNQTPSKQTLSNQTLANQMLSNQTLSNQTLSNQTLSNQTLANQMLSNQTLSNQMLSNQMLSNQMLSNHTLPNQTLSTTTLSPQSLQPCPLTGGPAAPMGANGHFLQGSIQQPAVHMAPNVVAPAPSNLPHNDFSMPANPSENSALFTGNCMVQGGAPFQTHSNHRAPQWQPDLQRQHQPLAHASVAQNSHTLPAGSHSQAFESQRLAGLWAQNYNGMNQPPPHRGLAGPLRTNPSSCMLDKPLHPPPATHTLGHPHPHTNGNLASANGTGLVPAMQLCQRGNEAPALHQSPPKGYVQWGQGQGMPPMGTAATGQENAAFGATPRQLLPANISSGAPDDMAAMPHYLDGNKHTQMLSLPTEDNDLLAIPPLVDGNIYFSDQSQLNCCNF

rat AHR = test system: rat AHR; design: method as in PMID 17941736, PMID 25108069; conditions: H4IIE-luc reporter assay; cited from earlier work
[1] = EC25 of TCDD divided by concentration of PAC giving 25% of TCDD response
[2] = Welch's t-test, Supporting Table S6

Atlantic cod Ahr1a, sequence (A0A6H1Z2L5 1-957): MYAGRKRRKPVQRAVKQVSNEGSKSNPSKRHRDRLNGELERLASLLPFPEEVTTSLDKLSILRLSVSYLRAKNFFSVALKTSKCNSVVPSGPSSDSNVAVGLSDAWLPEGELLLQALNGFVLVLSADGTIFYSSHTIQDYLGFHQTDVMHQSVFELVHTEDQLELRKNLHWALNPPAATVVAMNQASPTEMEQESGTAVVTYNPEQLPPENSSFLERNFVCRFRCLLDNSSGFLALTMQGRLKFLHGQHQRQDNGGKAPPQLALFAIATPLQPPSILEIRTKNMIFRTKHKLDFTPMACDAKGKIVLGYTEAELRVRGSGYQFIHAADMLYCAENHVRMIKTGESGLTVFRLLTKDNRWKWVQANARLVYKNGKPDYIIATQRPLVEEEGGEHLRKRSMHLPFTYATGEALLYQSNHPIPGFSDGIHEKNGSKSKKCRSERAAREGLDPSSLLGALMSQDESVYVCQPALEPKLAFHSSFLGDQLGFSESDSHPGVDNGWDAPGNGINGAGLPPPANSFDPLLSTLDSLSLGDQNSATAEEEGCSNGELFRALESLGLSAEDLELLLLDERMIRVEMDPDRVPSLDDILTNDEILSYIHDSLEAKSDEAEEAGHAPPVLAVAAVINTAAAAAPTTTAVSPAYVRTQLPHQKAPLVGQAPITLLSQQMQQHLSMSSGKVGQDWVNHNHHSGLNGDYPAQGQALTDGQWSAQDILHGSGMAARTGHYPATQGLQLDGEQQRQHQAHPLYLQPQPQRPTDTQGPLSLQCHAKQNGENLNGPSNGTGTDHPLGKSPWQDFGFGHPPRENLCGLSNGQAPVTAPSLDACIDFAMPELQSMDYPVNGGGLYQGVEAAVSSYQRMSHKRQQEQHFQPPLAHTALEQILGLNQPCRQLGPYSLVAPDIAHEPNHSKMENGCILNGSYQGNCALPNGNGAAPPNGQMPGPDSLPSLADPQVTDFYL
Atlantic cod Ahr1a, sequence (A0A8C5CZZ9 1-645 partner): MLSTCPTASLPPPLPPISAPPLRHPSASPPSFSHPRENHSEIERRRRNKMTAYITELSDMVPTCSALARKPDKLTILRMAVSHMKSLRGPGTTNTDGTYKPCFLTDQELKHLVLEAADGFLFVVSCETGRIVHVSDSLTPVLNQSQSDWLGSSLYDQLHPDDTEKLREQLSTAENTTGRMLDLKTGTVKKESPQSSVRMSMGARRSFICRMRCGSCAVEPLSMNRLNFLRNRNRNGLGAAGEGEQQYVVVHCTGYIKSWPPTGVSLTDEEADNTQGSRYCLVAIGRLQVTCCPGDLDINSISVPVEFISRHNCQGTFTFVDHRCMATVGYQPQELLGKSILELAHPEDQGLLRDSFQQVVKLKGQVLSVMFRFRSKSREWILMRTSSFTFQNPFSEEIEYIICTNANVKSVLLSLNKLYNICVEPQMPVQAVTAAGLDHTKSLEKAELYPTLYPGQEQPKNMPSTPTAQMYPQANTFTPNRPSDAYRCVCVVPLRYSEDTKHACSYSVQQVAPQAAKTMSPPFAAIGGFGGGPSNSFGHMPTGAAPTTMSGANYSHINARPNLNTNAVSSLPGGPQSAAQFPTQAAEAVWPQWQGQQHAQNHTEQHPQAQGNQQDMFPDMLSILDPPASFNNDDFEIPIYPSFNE

| SMILES | EC50 (Atlantic cod Ahr1a; COS-7 cells, 24 h exposure, read-out: Ahr1a EC50) [nM] | Ahr1a REP25 (Atlantic cod Ahr1a; [1]) | Efficacy compared to TCDD with Ahr1a (Atlantic cod Ahr1a; [2]) | Activation of Ahr1a (agonist or not) (Atlantic cod Ahr1a; in vitro transactivation) | Emax (Atlantic cod Ahr1a; percent of maximum efficacy determined for TCDD, COS-7 cells, 24 h exposure, None = no agonistic response significantly different from solvent, read-out: Ahr1a Relative Emax (%)) [%] | melting point [°C] | EC50 (Atlantic cod Ahr2a; COS-7 cells, 24 h exposure, read-out: Ahr2a EC50) [nM] | Ahr2a REP25 (Atlantic cod Ahr2a; [1]) | EC50 (Atlantic cod Ahr2a; Supplementary Table S5, read-out: Potency (EC50, nM) Ahr2a) [nM] | Efficacy compared to TCDD via Ahr2a (Atlantic cod Ahr2a; [2]) | Activation of Ahr2a (agonist or not) (Atlantic cod Ahr2a; in vitro transactivation) | Emax (Atlantic cod Ahr2a; percent of maximum efficacy determined for TCDD, COS-7 cells, 24 h exposure, None = no agonistic response significantly different from solvent, read-out: Ahr2a Relative Emax (%)) [%] | EC50 (rat AHR) [nM] | EC50 (Atlantic cod Ahr1a; Ahr1a EC50 (nM), COS-7 cells, 24 h exposure) [nM] | Emax (Atlantic cod Ahr1a; COS-7, read-out: Ahr1a Relative Emax (%)) [%] | EC50 (Atlantic cod Ahr2a; Ahr2a EC50 (nM), COS-7 cells, 24 h exposure) [nM] | Emax (Atlantic cod Ahr2a; COS-7, read-out: Ahr2a Relative Emax (%)) [%] |
| --- | --- | --- | --- | --- | --- | --- | --- | --- | --- | --- | --- | --- | --- | --- | --- | --- | --- |
| COc1cc2ccc3c4ccccc4ccc3c2cc1OC [2,3-DMOC, 2,3-Dimethoxychrysene] | 199 | 0.0083 | lower efficacies than TCDD | activated the two Ahrs | 77.5 | 212 to 213.5 | 359 | 0.00911 | 359 | lower efficacies in comparison to TCDD | activated the two Ahrs | 55 | – | – | – | – | – |
| Clc1cc2c(cc1Cl)Oc1cc(Cl)c(Cl)cc1O2 [TCDD, 2,3,7,8-Tetrachlorodibenzo-p-dioxin, reference compound] | – | – | – | – | – | – | – | – | – | – | – | – | 0.008 to 0.018 | 1.7 | 99.7 | 6.2 | 99.4 |
